# Source: patent US20120178915A1, “PYRIMIDINE DERIVATIVES AND ANALOGS, PREPARATION METHOD AND USE THEREOF” (priority 2009, published 2012)
# Like-named read-outs stand apart in the source and are kept apart here.
# Legend:
# Gram-positive Bacteria = format: cell-based
# Bacillus cereus 2 = experiment: microbe, parasite or virus in culture; format: cell-based; conditions: 37° C., 24 h, read-out: Minimum Inhibitory Concentration, MIC
# Bacillus cereus 246 = experiment: microbe, parasite or virus in culture; format: cell-based; conditions: 37° C., 24 h, read-out: Minimum Inhibitory Concentration, MIC
# Bacillus subtilis 82 = experiment: microbe, parasite or virus in culture; format: cell-based; conditions: 37° C., 24 h, read-out: Minimum Inhibitory Concentration, MIC
# Bacillus subtilis 168 = experiment: microbe, parasite or virus in culture; format: cell-based; conditions: 37° C., 24 h, read-out: Minimum Inhibitory Concentration, MIC
# [1] = system: Enterococcus faecalis 29212; experiment: microbe, parasite or virus in culture; format: cell-based; conditions: 37° C., 24 h, read-out: Minimum Inhibitory Concentration, MIC
# [2] = system: Enterococcus faecalis 51299; experiment: microbe, parasite or virus in culture; format: cell-based; conditions: Enterococcus faecalis, 51299, 24 h, read-out: Minimum Inhibitory Concentration, MIC
# [3] = system: Enterococcus faecalis 19433; experiment: microbe, parasite or virus in culture; format: cell-based; conditions: 37° C., 24 h, read-out: Minimum Inhibitory Concentration, MIC
# [4] = system: Enterococcus faecalis F2518 (VRE); experiment: microbe, parasite or virus in culture; format: cell-based; conditions: 24 h, read-out: Minimum Inhibitory Concentration, MIC
# [5] = system: Enterococcus fecal F631 (VRE); experiment: organism not typed; format: cell-based; conditions: 24 h, read-out: Minimum Inhibitory Concentration, MIC
# [6] = system: Enterococcus faecalis 1513 (VRE); experiment: microbe, parasite or virus in culture; format: cell-based; conditions: 24 h, read-out: Minimum Inhibitory Concentration, MIC
# [7] = system: Enterococcus faecalis 583 (VRE); experiment: microbe, parasite or virus in culture; format: cell-based; conditions: 24 h, read-out: Minimum Inhibitory Concentration, MIC
# [8] = system: Staphylococcus aureus 29231; experiment: microbe, parasite or virus in culture; format: cell-based; conditions: 37° C., 24 h, read-out: Minimum Inhibitory Concentration, MIC
# [9] = system: Staphylococcus aureus 43300 (MRSA); experiment: microbe, parasite or virus in culture; format: cell-based; conditions: 24 h, read-out: Minimum Inhibitory Concentration, MIC
# [10] = system: Staphylococcus aureus 703 (MRSA); experiment: microbe, parasite or virus in culture; format: cell-based; conditions: 24 h, read-out: Minimum Inhibitory Concentration, MIC
# [11] = system: Staphylococcus aureus 704 (MRSA); experiment: microbe, parasite or virus in culture; format: cell-based; conditions: 24 h, read-out: Minimum Inhibitory Concentration, MIC
# [12] = system: Staphylococcus aureus 705 (MRSA); experiment: microbe, parasite or virus in culture; format: cell-based; conditions: 24 h, read-out: Minimum Inhibitory Concentration, MIC
# [13] = system: Streptococcus pneumoniae 6303 (PRSP); experiment: microbe, parasite or virus in culture; format: cell-based; conditions: 24 h, read-out: Minimum Inhibitory Concentration, MIC
# [14] = system: Streptococcus pneumoniae 62; experiment: microbe, parasite or virus in culture; format: cell-based; conditions: 37° C., 24 h, read-out: Minimum Inhibitory Concentration, MIC
# [15] = system: Streptococcus pneumoniae 6301; experiment: microbe, parasite or virus in culture; format: cell-based; conditions: 37° C., 24 h, read-out: Minimum Inhibitory Concentration, MIC
# [16] = system: Streptococcus pneumoniae M2; experiment: microbe, parasite or virus in culture; format: cell-based; conditions: 37° C., 24 h, read-out: Minimum Inhibitory Concentration, MIC
# Pyogenic Streptococcus = experiment: microbe, parasite or virus in culture; format: cell-based; conditions: 37° C., 24 h, read-out: Minimum Inhibitory Concentration, MIC
# [17] = system: Streptococcus agalactiae B; experiment: microbe, parasite or virus in culture; format: cell-based; conditions: 37° C., 24 h, read-out: Minimum Inhibitory Concentration, MIC
# green Streptococcus 1009 = experiment: microbe, parasite or virus in culture; format: cell-based; conditions: 37° C., 24 h, read-out: Minimum Inhibitory Concentration, MIC
# [18] = system: Streptococcus bovis 10035; experiment: microbe, parasite or virus in culture; format: cell-based; conditions: Streptococcus equinus, 37° C., 24 h, read-out: Minimum Inhibitory Concentration, MIC
# Streptococcus 10342 = experiment: MIC broth microdilution; format: cell-based; conditions: 37° C., 24 h, read-out: Minimum Inhibitory Concentration, MIC
# [19] = system: Streptococcus pneumoniae 10351; experiment: microbe, parasite or virus in culture; format: cell-based; conditions: 37° C., 24 h, read-out: Minimum Inhibitory Concentration, MIC
# Bacillus anthracis 1 = experiment: microbe, parasite or virus in culture; format: cell-based; conditions: Bacillus anthracis, 1, 24 h, read-out: Minimum Inhibitory Concentration, MIC
# [20] = system: Corynebacterium diphtheriae; experiment: microbe, parasite or virus in culture; format: cell-based; conditions: 37° C., 24 h, read-out: Minimum Inhibitory Concentration, MIC
# Clostridium tetani = experiment: microbe, parasite or virus in culture; format: cell-based; conditions: 24 h
# Clostridium perfringens = experiment: microbe, parasite or virus in culture; format: cell-based; conditions: 24 h, read-out: Minimum Inhibitory Concentration, MIC
# Oral candidiasis = experiment: MIC broth microdilution; format: cell-based; conditions: Microorganism 32, Oral candidiasis; 37° C., 24 h; read-out: Minimum Inhibitory Concentration, MIC
# MIC broth microdilution = format: cell-based; conditions: Microorganism 33, Dermatophytosis; 37° C., 24 h; read-out: Minimum Inhibitory Concentration, MIC
# MRSA 2152 = experiment: Antibacterial studies in vivo, survival of mice infected with MRSA 2152; conditions: dose mg/kg: ciprofloxacin 20, 3: 30, 7: 40, 21: 50, 33: 25, 70: 70; for Survival rate (%) (life prolongation rate): (survival days of test group − blank group)/blank group ×100%, MRSA 2152 mice, tail vein; for Survival: mice inoculated intraperitoneally with MRSA 2152, test compound by tail vein, repeated after six hours, saline 1.3 days
# [21] = Enterococcus faecalis (VRE), Staphylococcus aureus (MRSA), Streptococcus pneumoniae 6303 (PRSP), Bacillus cereus, Bacillus subtilis, Enterococcus faecalis, Staphylococcus aureus, Streptococcus pneumoniae, Streptococcus agalactiae B and streptococci 4
# [22] = read-out: Minimum Inhibitory Concentration, MIC, Microorganism 29, Clostridium tetani, 37° C.
# [23] = read-out: Minimum Inhibitory Concentration, MIC, Microorganism 30, Clostridium tetani (second line of that name), 37° C.
Compound,MIC (Bacillus cereus 2),MIC (Bacillus cereus 246),MIC (Bacillus subtilis 82),MIC (Bacillus subtilis 168),MIC [1],MIC [2],MIC [3],MIC [4],MIC [5],MIC [6],MIC [7],MIC [8],MIC [9],MIC [10],MIC [11],MIC [12],MIC [13],MIC [14],MIC [15],MIC [16],other results
Cc1c(-c2ccc(C(F)(F)F)cc2)[nH]c2c(-c3ccc(Cl)cc3Cl)c(C3CC3)nn2c1=O [Compound 21],0.36 µM,1.55 µM,0.68 µM,0.46 µM,0.32 µM,10.5 µM,12.3 µM,2.5 µM,0.33 µM,2.3 µM,0.11 µM,0.6 µM,0.35 µM,0.42 µM,0.28 µM,0.3 µM,1.33 µM,0.25 µM,0.23 µM,0.02 µM,inhibition of growth (conclusion from MICs) (Gram-positive Bacteria; [21]): significantly inhibited the growth; MIC (Pyogenic Streptococcus): 1.23 µM; MIC [17]: 0.55 µM; MIC (green Streptococcus 1009): 1.55 µM; MIC [18]: 1.25 µM; MIC (Streptococcus 10342): 1.35 µM; MIC [19]: 1.25 µM; MIC (Bacillus anthracis 1): 13.5 µM; MIC [20]: 30.3 µM; MIC (Clostridium tetani; [22]): 30.2 µM; MIC (Clostridium tetani; [23]): 80.3 µM; MIC (Clostridium perfringens): 32 µM; MIC (Oral candidiasis): 88.5 µM; MIC (MIC broth microdilution): 33.7 µM; Survival rate (%) (life prolongation rate) (MRSA 2152): 133.2%; Survival (MRSA 2152): 3.2 days
Cc1c(-c2ccc(C#N)cc2)[nH]c2c(-c3ccc(Cl)cc3Cl)c(-c3ccccc3)nn2c1=O [Compound 70],0.31 µM,1.32 µM,1.25 µM,1.25 µM,2.5 µM,2.5 µM,0.23 µM,0.55 µM,0.55 µM,2.5 µM,1.25 µM,0.55 µM,0.56 µM,1.25 µM,0.35 µM,0.55 µM,0.04 µM,10.5 µM,0.2 µM,0.63 µM,inhibition of growth (conclusion from MICs) (Gram-positive Bacteria; [21]): significantly inhibited the growth; MIC (Pyogenic Streptococcus): 1.33 µM; MIC [17]: 0.25 µM; MIC (green Streptococcus 1009): 0.23 µM; MIC [18]: 0.02 µM; MIC (Streptococcus 10342): 1.23 µM; MIC [19]: 0.55 µM; MIC (Bacillus anthracis 1): 12.5 µM; MIC [20]: 45.2 µM; MIC (Clostridium tetani; [22]): 80.2 µM; MIC (Clostridium tetani; [23]): 50.2 µM; MIC (Clostridium perfringens): 30.6 µM; MIC (Oral candidiasis): 120 µM; MIC (MIC broth microdilution): 125 µM; Survival rate (%) (life prolongation rate) (MRSA 2152): 253.8%; Survival (MRSA 2152): 4.6 days
Cc1nn2c(=O)cc(-c3ccc(C(F)(F)F)cc3)[nH]c2c1-c1ccc(Cl)cc1Cl [Compound 7],0.63 µM,1.25 µM,0.02 µM,0.22 µM,0.31 µM,2.5 µM,0.61 µM,0.23 µM,0.63 µM,0.65 µM,0.3 µM,5 µM,2.5 µM,2.5 µM,0.32 µM,0.55 µM,0.21 µM,0.19 µM,5 µM,2.5 µM,inhibition of growth (conclusion from MICs) (Gram-positive Bacteria; [21]): significantly inhibited the growth; MIC (Pyogenic Streptococcus): 2.5 µM; MIC [17]: 0.22 µM; MIC (green Streptococcus 1009): 1.35 µM; MIC [18]: 2.25 µM; MIC (Streptococcus 10342): 0.25 µM; MIC [19]: 1.25 µM; MIC (Bacillus anthracis 1): 80.3 µM; MIC [20]: 71.2 µM; MIC (Clostridium tetani; [22]): 50.3 µM; MIC (Clostridium tetani; [23]): 22.1 µM; MIC (Clostridium perfringens): 50.2 µM; MIC (Oral candidiasis): 35.6 µM; MIC (MIC broth microdilution): 36.5 µM; Survival rate (%) (life prolongation rate) (MRSA 2152): 330.7%; Survival (MRSA 2152): 5.6 days
Cc1nn2c(=O)cc(-c3ccc(C#N)cc3)[nH]c2c1-c1ccc(C(F)(F)F)cc1 [Compound 3],2.5 µM,0.53 µM,5 µM,2.5 µM,0.23 µM,0.55 µM,0.42 µM,0.48 µM,0.33 µM,1.3 µM,0.63 µM,0.22 µM,0.36 µM,1.25 µM,0.63 µM,0.46 µM,0.32 µM,10.5 µM,0.3 µM,0.04 µM,inhibition of growth (conclusion from MICs) (Gram-positive Bacteria; [21]): significantly inhibited the growth; MIC (Pyogenic Streptococcus): 0.12 µM; MIC [17]: 0.16 µM; MIC (green Streptococcus 1009): 0.31 µM; MIC [18]: 2.01 µM; MIC (Streptococcus 10342): 1.33 µM; MIC [19]: 1.25 µM; MIC (Bacillus anthracis 1): 25.6 µM; MIC [20]: 62.1 µM; MIC (Clostridium tetani; [22]): 50.3 µM; MIC (Clostridium tetani; [23]): 23.2 µM; MIC (Clostridium perfringens): 55.3 µM; MIC (Oral candidiasis): 53.1 µM; MIC (MIC broth microdilution): 59.1 µM; Survival rate (%) (life prolongation rate) (MRSA 2152): 216.8%; Survival (MRSA 2152): 4.3 days
CCc1nn2c(=O)cc(-c3ccc(C#N)cc3)[nH]c2c1-c1ccc(Cl)cc1Cl [Compound 5],10.5 µM,0.3 µM,0.04 µM,0.12 µM,0.16 µM,0.3 µM,2.01 µM,31.3 µM,19.2 µM,35.2 µM,32.1 µM,5.31 µM,213 µM,135 µM,150 µM,123 µM,105 µM,10.5 µM,0.3 µM,0.04 µM,"inhibition of growth (conclusion from MICs) (Gram-positive Bacteria; the majority of Bacillus cereus, Bacillus subtilis and Enterococcus faecalis): significantly inhibited the growth; MIC (Pyogenic Streptococcus): 20.1 µM; MIC [17]: 0.16 µM; MIC (green Streptococcus 1009): 0.31 µM; MIC [18]: 2.01 µM; MIC (Streptococcus 10342): 1.33 µM; MIC [19]: 1.25 µM; MIC (Bacillus anthracis 1): 52.4 µM; MIC [20]: 26.1 µM; MIC (Clostridium tetani; [22]): 50.3 µM; MIC (Clostridium tetani; [23]): 23.2 µM; MIC (Clostridium perfringens): 55.3 µM; MIC (Oral candidiasis): 52.1 µM; MIC (MIC broth microdilution): 33.5 µM"
